# Marks after values point to notes of the source that are not given here.
# Tests used:
# Format in all cases: cell-based, Rattus norvegicus
# [1] = system: α4β2 nAChRs expressed in Xenopus laevis oocytes; assay: Two-electrode voltage clamp, nicotine-induced currents in oocytes; parameters: key to Nicotine EC50 (μM) / Nicotine Hill Coef. / Nicotine Peak Current (nA): (n/f) non-functional; (n/e) no-expression; key to Nicotine sensitivity mark of the mutation: Mutations highlighted in green (‡) exhibit hypersensitivity to nicotine; those in red (¶) exhibit agonist selectivity evidenced by their remarkable reductions in sensitivity to nicotine; details: for Nicotine Hill Coef. / Nicotine Peak Current (nA) / receptor function with nicotine / Nicotine EC50 (μM) / nicotine-induced macroscopic peak current compared with WT: nicotine as agonist; for Nicotine Peak Current (nA) / Nicotine EC50 (μM): mean ± SEM of 6-17 oocytes; for receptor function with nicotine / nicotine-induced macroscopic peak current compared with WT: in words; for Nicotine EC50 (μM): −70 mV; for Nicotine sensitivity mark of the mutation: footnote mark beside the mutation
# Description: (§1) Single point mutations were prepared using the Quickchange™ Site-Directed Mutagenesis Kit (Stratagene, La Jolla, Calif.). The template used for the PCR reaction was the pGEMHE vector with Rattus norvegicus cDNA coding for the α4 neuronal nAChR subunit. DNA was purified using a QIAprep spin miniprep kit (Quiagen, Germantown, Md.) and then sequenced to confirm the incorporation of each mutation. A total of 11 residues in the cytoplasmic loop of the α4 subunit were chosen to be mutated: S364, T417, S438, S469, S471, S490, S504, S516, T536, Y576, and S589. Each residue was mutated to alanine (A) and aspartic acid (D).
# (§2) Each subunit encoding mRNA was synthesized in vitro from linearized pGEMHE plasmid templates of Rattus norvegicus cDNA coding for α4 and β2 nAChR subunits using the mMessage mMachine RNA transcription kit (Ambion, Austin, Tex.). mRNA mixtures of α4 and β2 subunits were prepared at 2 μg:3 μg ratio, and 32.2 nL of this mixture was microinjected into each oocyte. The mRNA mixture was microinjected, using a displacement injector (Drummond Instruments, Broomhall, Pa.), into stage V and VI oocytes that had been extracted, incubated in collagenase Type 1A (Sigma, St. Louis, Mo.), and defolliculated by manual dissection. The injected oocytes were incubated at 19° C. for 3-4 days in ND-96 medium supplemented with albumin, gentamicin, tetracycline, and theophyline. Electrophysiological experiments were performed after the third or fourth day of mRNA injection.
# (§3) Oocytes injected with the mRNA transcripts of α4 and β2 subunits were characterized using a two-electrode voltage clamp. ACh- and nicotine-induced currents were recorded at 20° C., 3-4 days after mRNA injection, with a GeneClamp 500B Amplifier (Axon Instruments, Foster City, Calif.). […] All the reagents used were purchased from Sigma-Aldrich, Co. (St. Louis, Mo.). For dose-response curves, each oocyte was held at a membrane potential of −70 mV. Membrane currents were digitized using the DigiData 1322A interface (Axon Instruments, Foster City, Calif.), filtered at 2 kHz during recording. The Clampex 10.0 software running on a Pentium 4-based computer was used for data acquisition. Data analysis was via Prism 3.0 (Graphpad Software, San Diego, Calif.). Dose-response data for the α4β2 combination were collected using seven ACh doses (0.1, 1, 3, 10, 30, 100, and a seventh concentration ranging from 300 to 1000 μM depending on the mutant) and seven nicotine concentrations (0.1, 1, 3, 10, 30, 100, 300 μM). The data were fitted using a one-component sigmoidal dose-response equation, Y=I/ImaxBottom+(I/ImaxTop−I/ImaxBottom)/(1+10^((Log EC50−X)×HillSlope)) where X is the logarithm of concentration and Y is the response.
# Target sequence in this assay (P09483 31-333 limits assumed): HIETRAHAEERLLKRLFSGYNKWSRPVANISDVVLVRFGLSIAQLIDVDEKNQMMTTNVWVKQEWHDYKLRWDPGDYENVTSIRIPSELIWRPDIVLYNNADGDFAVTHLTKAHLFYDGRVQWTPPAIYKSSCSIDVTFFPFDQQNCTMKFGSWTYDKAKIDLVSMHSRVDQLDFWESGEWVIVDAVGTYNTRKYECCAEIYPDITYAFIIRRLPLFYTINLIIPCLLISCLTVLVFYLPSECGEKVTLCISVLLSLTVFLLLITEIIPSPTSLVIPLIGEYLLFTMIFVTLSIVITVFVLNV
# Target sequence in this assay (P12390 25-500, further chain): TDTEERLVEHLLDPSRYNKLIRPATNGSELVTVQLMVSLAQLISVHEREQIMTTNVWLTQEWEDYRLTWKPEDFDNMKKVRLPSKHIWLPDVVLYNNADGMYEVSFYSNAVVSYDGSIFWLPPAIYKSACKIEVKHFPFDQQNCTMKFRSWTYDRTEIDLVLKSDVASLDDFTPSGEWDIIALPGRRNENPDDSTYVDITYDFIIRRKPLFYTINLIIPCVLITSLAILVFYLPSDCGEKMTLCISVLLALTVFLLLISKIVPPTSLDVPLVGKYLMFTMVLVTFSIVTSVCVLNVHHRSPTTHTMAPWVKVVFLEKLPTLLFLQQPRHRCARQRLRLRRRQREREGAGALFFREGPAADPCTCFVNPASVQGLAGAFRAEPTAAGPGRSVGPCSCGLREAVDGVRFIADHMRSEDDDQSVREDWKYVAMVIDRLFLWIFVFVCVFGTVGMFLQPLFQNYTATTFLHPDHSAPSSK
# [2] = system: α4β2 nAChRs expressed in Xenopus laevis oocytes; assay: Two-electrode voltage clamp, ACh-induced currents in oocytes; parameters: key to ACh EC50 (μM) / ACh Hill Coef. / ACh Peak Current (nA): (n/f) non-functional; (n/e) no-expression; details: ACh as agonist; for ACh Peak Current (nA) / ACh EC50 (μM): mean ± SEM of 6-17 oocytes; for ACh-induced macroscopic peak current compared with WT / receptor function with ACh: in words; for ACh EC50 (μM): −70 mV
# Description: as §1, §2, §3
# Target sequence in this assay (P09483 31-249 limits assumed): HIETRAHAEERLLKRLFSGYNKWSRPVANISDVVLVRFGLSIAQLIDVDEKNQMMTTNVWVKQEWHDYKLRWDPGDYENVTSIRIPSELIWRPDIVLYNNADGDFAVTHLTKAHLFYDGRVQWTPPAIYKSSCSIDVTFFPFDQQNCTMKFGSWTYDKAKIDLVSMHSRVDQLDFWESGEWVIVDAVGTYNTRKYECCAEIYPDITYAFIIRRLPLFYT
# Target sequence in this assay (P12390 25-237 limits assumed, further chain): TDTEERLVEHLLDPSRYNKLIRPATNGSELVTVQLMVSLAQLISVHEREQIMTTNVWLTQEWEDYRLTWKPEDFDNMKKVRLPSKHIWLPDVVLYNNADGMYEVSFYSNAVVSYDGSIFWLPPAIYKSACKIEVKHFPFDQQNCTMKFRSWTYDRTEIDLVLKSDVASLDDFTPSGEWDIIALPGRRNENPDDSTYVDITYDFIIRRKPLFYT
# [3] = system: α4β2 nAChRs expressed in Xenopus laevis oocytes; assay: Efficacy of agonist A-85380 versus ACh for subunit stoichiometry determination; details: A-85380 100 nM vs ACh 300 μM; α4β2 mRNA 2:3 ratio
# Description: To determine whether the α4β2 mutations α4S469Aβ2, α4S471Dβ2, α4T536Aβ2 and α4Y576Aβ2 expressed in Xenopus laevis oocytes assemble in the α4(2):β2(3) or the α4(3):β2(2) stoichiometry, we estimated the efficacy of agonist A-85380 when compared to ACh 300 μM. […] The efficacy of A-85380 in WTα4(2):β2(3) and […] was determined by comparing the macroscopic current elicited by A-85380 100 nM and ACh 300 μM in oocytes microinjected α4β2 mRNA in 1:10 and 10:1 ratios, respectively. The efficacy of A-85380 in α4S469Aβ2, α4S471Dβ2, α4T536Aβ2 and α4Y576Aβ2 was determined by comparing the macroscopic current elicited by A-85380 100 nM and ACh 300 μM in oocytes microinjected α4β2 mRNA in 2:3 ratio. The changes in stoichiometry in these four mutants were assessed by comparing the efficacy of A-85380 in each mutant compared to WTα4(2):β2(3) and WTα4(3):β2(2).
Substance,Nicotine Hill Coef. [1],Nicotine Peak Current (nA) [1],Nicotine Peak Current (nA) ([1]; listed as WT),ACh Hill Coef. [2],ACh Peak Current (nA) [2],receptor function with nicotine [1],Nicotine EC50 (μM) [1],ACh-induced macroscopic peak current compared with WT [2],Nicotine sensitivity mark of the mutation [1],nicotine-induced macroscopic peak current compared with WT [1],Nicotine Peak Current (nA) ([1]; listed as α4S438D),efficacy of A-85380 compared with WT injected 2:3 or 1:10 ratio [3],Nicotine Peak Current (nA) ([1]; listed as α4S469A),receptor function with ACh [2],ACh EC50 (μM) [2]
WT α4β2: wild-type rat α4β2 neuronal nicotinic acetylcholine receptor expressed in Xenopus laevis oocytes [reference compound],1.80,387 ± 66 nA,387±66,1.00,2110 ± 243 nA,–,–,–,–,–,–,–,–,–,–
"α4S438Aβ2: rat α4β2 nAChR, α4 subunit point mutation S438A, CKII putative phosphorylation site",n/f,n/f,–,0.49,97 ± 29 nA,non-functional,n/f,significant decreases in the macroscopic peak currents,–,–,–,–,–,–,–
"α4S438Dβ2: rat α4β2 nAChR, α4 subunit point mutation S438D, CKII putative phosphorylation site",1.29,2156 ± 475 nA,–,0.68,1938 ± 367 nA,–,–,no change in the macroscopic peak current,α4S438Dβ2‡,significant increases in the macroscopic peak currents,2156±475,–,–,–,–
"α4S469Aβ2: rat α4β2 nAChR, α4 subunit point mutation S469A, CKII putative phosphorylation site",1.84,1552 ± 313 nA,–,0.87,2222 ± 413 nA,–,–,no change in the macroscopic peak current,α4S469Aβ2‡,significant increases in the macroscopic peak currents,–,no significant difference,1552±313,–,–
"α4S469Dβ2: rat α4β2 nAChR, α4 subunit point mutation S469D, CKII putative phosphorylation site",n/f,n/f,–,n/f,n/f,non-functional,n/f,–,–,–,–,–,–,non-functional,n/f
"α4S471Aβ2: rat α4β2 nAChR, α4 subunit point mutation S471A, PKA putative phosphorylation site",n/f,n/f,–,n/f,n/f,–,n/f,–,–,–,–,–,–,non-functional,n/f
"α4S471Dβ2: rat α4β2 nAChR, α4 subunit point mutation S471D, PKA putative phosphorylation site",2.00,142 ± 313 nA,–,1.01,1039 ± 139 nA,functional activation by nicotine,–,significant decrease in macroscopic peak current,–,significant decrease in the macroscopic peak current,–,no significant difference,–,–,–

# — patent US10676518B1, “A4B2 nicotinic acetylcholine receptors with reduced or increased nicotine sensitivity and transgenic mouse model for the same” (University of Puerto Rico, priority 2015, dated 2020)
